Experimental data as given in patent publication US11617740B2, “Chemical inhibitors of Mycobacterium tuberculosis DosRST signaling and persistence” (priority 2017, dated 2023).
“And” between values parts separate entries of the source, which are not always exact repeats. Equal values may be shown once. “Also recorded” adds a separate entry of the source.

Tests used:
DosR regulon = assay type: cell-based; conditions: ΔdosR mutant, 40 μM, >2-fold; q<0.05
WT DosS heme [1] = target: T1, WT DosS heme (Mycobacterium tuberculosis, UniProt P9WGK3); assay: UV-visible spectroscopy of DosS heme; assay type: biochemical; conditions: for position of DosS Soret peak after treatment: DTN-reduced DosS (430 nm), 100 μM
DosS(E87L) = DosS(E87L) (Mycobacterium tuberculosis, UniProt P9WGK3, E87L); assay type: biochemical
DosS(G117L) = DosS(G117L) (Mycobacterium tuberculosis, UniProt P9WGK3, G117L); assay type: biochemical
WT DosS heme [2] = target: T1, WT DosS heme; conditions: identical conditions, gradual shift to oxidized state; cited from earlier work

Structure (SMILES)	genes downregulated in CDC1551(ΔdosR) background (DosR regulon)	position of DosS Soret peak after treatment (WT DosS heme [1])	further results
O=C(Nc1ccno1)Nc1ccc(Cl)cc1Cl [HC106A]	51 genes	422 nm and ~420 nm	change of DosS E87L UV-visible spectrum (DosS(E87L)): no change on overall spectrum; position of DosS(E87L) Soret peak after treatment (DosS(E87L)): 422 nm; change of DosS(G117L) UV-visible spectrum (DosS(G117L)): no change to the overall spectrum; also recorded: did not change; also recorded: promoted HC106A resistance
CN(C)CCCN1C(=O)c2cccc3c(Br)ccc(c23)C1=O [HC104A]	171 genes		effect on DosS UV-visible spectrum / heme redox (WT DosS heme [1]; DTN-reduced DosS, 400 μM HC104A): no change; also recorded: inhibitory activity was not observed; also recorded: no impact on the position of the Soret peak
[C-]#[O+].[C-]#[O+].[C-]#[O+].[C-]#[O+].[C-]#[O+].[C-]#[O+].[Cl][Ru][Cl].[Cl][Ru][Cl] [CORM-2, tricarbonylchlororuthenium(II) dimer, reference compound]		422 nm	
[C-]#[O+] [CO, carbon monoxide, reference compound]		422 nm	
C[C@@H]1CC[C@H]2[C@@H](C)C(=O)O[C@@H]3O[C@@]4(C)CC[C@@H]1[C@]32OO4 [artemisinin, reference compound]			position of DosS Soret peak after treatment (earlier work) (WT DosS heme [2]): 403 nm
